Measurements taken from patent US6376670B1, “Quinoline-indole antimicrobial agents, uses and compositions related thereto” (Sepracor Inc., priority 1997, dated 2002).
Like-named read-outs stand apart in the source and are kept apart here. Values belong to the molecule of their own block, whether it stands above or below them.

How the values were obtained:
[1] = Acute in vivo toxicity in mice, intraperitoneal injection; conditions: in 10% w/v hydroxypropyl-β-cyclodextrin in 0.9% w/v saline, 5 mice
Method: Solutions of compounds in 10% w/v hydroxypropyl-β-cyclodextrin in 0.9% w/v saline were prepared. Doses of 40 mg/kg or 120 mg/kg of each compound were administered to mice (5 mice/compound/dose) via intraperitoneal injections. The mice […] for seven days.

[2] = tested on: vancomycin-resistant Enterococcus spp. (VRE); test: Determination of MIC values (BHI broth, 96 well microtiter plate); assay type: cell-based; conditions: Enterococcus, VRE, BHI broth, read-out: MIC VREF
Procedure, shortened: (§1)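 Broth microdilution in BHI broth used final compound concentrations of 25 to 0.39 μg/mL, diluted from DMSO solutions. Inoculum was 10^5–10^6 cells/mL from cultures grown to a 0.5 McFarland standard. Plates were incubated overnight (~16 h) at 37 °C in about 7–10% CO2; MIC was the lowest concentration with no visible growth.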

Streptococcus pneumoniae = test: as above; assay type: cell-based; conditions: Streptococcus pneumoniae, BHI broth, read-out: MIC S. pneu
Procedure, shortened: as §1

[3] = tested on: methicillin-resistant Staphylococcus aureus (MRSA); test: as above; assay type: cell-based; conditions: Staphylococcus aureus, MRSA, read-out: MIC MRSA
Procedure, shortened: as §1

S. aureus (ATCC 33592) = test: MIC against S. aureus strain; assay type: cell-based; conditions: Staphylococcus aureus, ATCC33592
Method: (§2) Stock solutions of compounds are prepared with a concentration of 10 mg/mL. These solutions are then diluted 1:4 to give a concentration of 2.5 mg/mL. The compounds are then serially diluted 1:2 for 6 iterations. The concentrations made for each compound are 2.5, 1.25, 0.625, 0.3125, 0.156, 0.078, and 0.039 mg/mL. A control sample (no compound) is run along with each compound tested. All dilutions are made in DMSO.
(§3) All wells of a 96 well microtiter plate are filled with 100 μL of BHI (Brain-Heart Infusion) broth. Columns on the plate are labeled 1-12, and rows are labeled A-H. Each column of wells is used to test one series of diluted compounds. Into each well of 100 μL of BHI broth, 1 μL of diluted compound is placed for a 1:100 dilution. This makes the final concentration of each drug series 25, 12.5, 6.25, 3.125, 1.56, 0.78, 0.39, and 0 μg/mL.
(§4) Test Organism: A sterile 15 mL screw cap tube is filled wth 3 mL of BHI broth. Next, 2-3 colonies of test organism are inoculated into the tube. The tube is then incubated at 37° C. in a CO2 (approx. 7%) atmosphere jar. The organisms are allowed to grow to the density of a 0.5 McFarland standard (10^8 cells/mL). The organism is then inoculated into each well of the microtiter plate containing the diluted compounds to be tested for MIC. The inoculum is 1 μL in volume and represents 10^5 to 10^6 cells/mL.
(§5) After inoculation the plates are covered and incubated at 37° C. and approx. 7-10% CO2 atmosphere overnight (about 16 hours). The plates are then observed for growth, the well with the lowest concentration of drug and no observable growth represents the well determining the MIC.

S. aureus (ATCC 25923) = test: MIC against S. aureus strain; assay type: cell-based; conditions: Staphylococcus aureus, ATCC25923
Method: as §2, §3, §4, §5

S. aureus (ATCC 29213) = test: MIC against S. aureus strain; assay type: cell-based; conditions: Staphylococcus aureus, ATCC29213
Method: as §2, §3, §4, §5

S. aureus (ATCC 33591) = test: MIC against S. aureus strain; assay type: cell-based; conditions: Staphylococcus aureus, ATCC33591
Method: as §2, §3, §4, §5

VISA-5836 = test: MIC against VISA strain; assay type: cell-based; conditions: Staphylococcus aureus
Method: as §2, §3, §4, §5

VISA-5827 = test: MIC against VISA strain; assay type: cell-based; conditions: Staphylococcus aureus
Method: as §2, §3, §4, §5

[4] = 16 h, BHI broth, 37° C., about 16 hours

SMILES: Cn1cc(-c2cc(C(=O)NCCN)c3ccc(Cl)cc3n2)c2cc(Br)ccc21 [Example 420]
Mice Surviving on Day 7 ([1]; 40 mg/kg intraperitoneal): 100%
Mice Surviving on Day 7 ([1]; 120 mg/kg intraperitoneal): 100%
MIC ([2]; 16 h, 37° C., about 16 hours): < 7 µg/mL
MIC (Streptococcus pneumoniae; 37° C., about 16 hours): < 7 µg/mL
MIC [3, 4]: < 7 µg/mL

MIC (S. aureus (ATCC 33592)): < 7 µg/mL
MIC (S. aureus (ATCC 25923)): < 7 µg/mL
MIC (S. aureus (ATCC 29213)): < 7 µg/mL
MIC (S. aureus (ATCC 33591)): < 7 µg/mL
SMILES: COc1ccc(NC(=O)c2cc(-c3c[nH]c4ccc(Br)cc34)nc3ccc(C#CCN4CCCCC4)cc23)cc1 [compound 2]

SMILES: Cc1ccc2[nH]cc(-c3cc(Cl)c4ccc(Cl)cc4n3)c2c1 [Example 474]
Mice Surviving on Day 7 ([1]; 40 mg/kg intraperitoneal): 100%
Mice Surviving on Day 7 ([1]; 120 mg/kg intraperitoneal): 100%
MIC ([2]; 16 h, 37° C., about 16 hours): < 25 µg/mL
MIC (Streptococcus pneumoniae; 37° C., about 16 hours): < 7 µg/mL
MIC [3, 4]: < 7 µg/mL

MIC (VISA-5836): < 7 µg/mL
MIC (VISA-5827): < 7 µg/mL
MIC [3]: < 7 µg/mL
SMILES: NCc1cc(-c2c[nH]c3ccc(Br)cc23)nc2cc(Cl)ccc12 [compound 8]

SMILES: COc1ccc2nc(-c3c[nH]c4ccc(Cl)cc34)ccc2c1 [Example 417]
Mice Surviving on Day 7 ([1]; 40 mg/kg intraperitoneal): 100%
Mice Surviving on Day 7 ([1]; 120 mg/kg intraperitoneal): 100%

MIC (VISA-5836): < 7 µg/mL
MIC (VISA-5827): < 7 µg/mL
MIC [3]: < 7 µg/mL
SMILES: NCc1ccc(CNC(=O)c2cc(-c3c[nH]c4ccc(Br)cc34)nc3ccccc23)cc1 [compound 1]

SMILES: Fc1ccc2c(-c3ccc4cc(Cl)ccc4n3)c[nH]c2c1 [Example 193]
Mice Surviving on Day 7 ([1]; 40 mg/kg intraperitoneal): 100%
Mice Surviving on Day 7 ([1]; 120 mg/kg intraperitoneal): 100%
MIC ([2]; 16 h, 37° C., overnight (about 16 hours)): < 7 µg/mL
MIC (Streptococcus pneumoniae; 37° C., overnight (about 16 hours)): < 7 µg/mL
MIC ([3]; 16 h, BHI broth, 37° C., overnight (about 16 hours)): < 7 µg/mL

SMILES: Cn1cc(-c2cc(C(=O)NCCN)c3cc(C#CCN4CCCCC4)c(Cl)cc3n2)c2cc(Br)ccc21 [Example 419]
Mice Surviving on Day 7 ([1]; 40 mg/kg intraperitoneal): 40%
Mice Surviving on Day 7 ([1]; 120 mg/kg intraperitoneal): 0%
MIC ([2]; 16 h, 37° C., about 16 hours): < 7 µg/mL
MIC (Streptococcus pneumoniae; 37° C., about 16 hours): < 7 µg/mL
MIC [3, 4]: < 7 µg/mL

MIC (S. aureus (ATCC 33592)): < 7 µg/mL
MIC (S. aureus (ATCC 25923)): < 7 µg/mL
MIC (S. aureus (ATCC 29213)): < 7 µg/mL
MIC (S. aureus (ATCC 33591)): < 7 µg/mL
SMILES: Brc1ccc2[nH]cc(-c3nc4ccc(C#CCN5CCCCC5)cc4c4c3CCO4)c2c1 [compound 8]

SMILES: COC(=O)c1cc(-c2c[nH]c3ccc(Br)cc23)nc2cc(F)ccc12 [Example 307]
Mice Surviving on Day 7 ([1]; 40 mg/kg intraperitoneal): 100%
Mice Surviving on Day 7 ([1]; 120 mg/kg intraperitoneal): 100%
MIC ([2]; VREF, overnight 37° C.): < 7 µg/mL
MIC (Streptococcus pneumoniae; S. pneu, overnight 37° C.): < 7 µg/mL
MIC ([3]; BHI broth, overnight 37° C.): < 7 µg/mL

SMILES: OCc1cc(-c2c[nH]c3ccc(Br)cc23)nc2cc(F)ccc12 [compound 7]
MIC (VISA-5836): < 7 µg/mL
MIC (VISA-5827): < 7 µg/mL
MIC [3]: < 7 µg/mL

MIC (S. aureus (ATCC 33592)): < 7 µg/mL
MIC (S. aureus (ATCC 25923)): < 7 µg/mL
MIC (S. aureus (ATCC 29213)): < 7 µg/mL
MIC (S. aureus (ATCC 33591)): < 7 µg/mL
SMILES: NCc1ccc(CNC(=O)c2cc(-c3c[nH]c4ccc(Br)cc34)nc3ccc(C#CCN4CCCCC4)cc23)cc1 [compound 1]

MIC (VISA-5836): < 7 µg/mL
MIC (VISA-5827): < 7 µg/mL
MIC [3]: < 7 µg/mL
SMILES: Brc1ccc2[nH]cc(-c3nc4ccc(C#CCN5CCCCC5)cc4c4c3CCO4)c2c1 [compound 9]

SMILES: NCCNC(=O)c1cc(-c2c[nH]c3ccc(Br)cc23)nc2cc(Cl)c(C#CCN3CCCCC3)cc12 [compound 5]
MIC (VISA-5836): < 7 µg/mL
MIC (VISA-5827): < 7 µg/mL
MIC [3]: < 7 µg/mL

SMILES: COc1ccc2nc(-c3c[nH]c4ccc(Cl)cc34)ccc2c1 [compound 6]
MIC (VISA-5836): < 7 µg/mL
MIC (VISA-5827): < 7 µg/mL
MIC [3]: < 7 µg/mL

SMILES: NCCNC(=O)c1cc(-c2c[nH]c3ccc(Br)cc23)nc2cc(Cl)c(C#CCN3CCCCC3)cc12 [compound 4]
MIC (S. aureus (ATCC 33592)): < 7 µg/mL
MIC (S. aureus (ATCC 25923)): < 7 µg/mL
MIC (S. aureus (ATCC 29213)): < 7 µg/mL
MIC (S. aureus (ATCC 33591)): < 7 µg/mL

SMILES: Cn1cc(-c2cc(C(=O)NCCN)c3cc(I)ccc3n2)c2cc(Br)ccc21 [Example 359]
Mice Surviving on Day 7 ([1]; 40 mg/kg intraperitoneal): 100%
Mice Surviving on Day 7 ([1]; 120 mg/kg intraperitoneal): 100%
MIC ([2]; VREF, overnight 37° C.): < 7 µg/mL
MIC (Streptococcus pneumoniae; S. pneu, overnight 37° C.): < 7 µg/mL
MIC ([3]; BHI broth, overnight 37° C.): < 7 µg/mL
